Tests used:
[1] = test system: OTUB2 gene in cells with only ERα; conditions: MCF-7 cells with only ERα, qPCR, 24 h
[2] = target: purified full-length human ERβ (Homo sapiens, UniProt Q92731); assay: biochemical
hERβ = hERβ (Homo sapiens, UniProt Q92731); conditions: HEC-1 reporter assay

Row | SMILES | Stimulation of OTUB2 in cells with only ERα [1] | Ki [2] [nM] | Reduction in potency on ERβ compared to 2a (hERβ) [fold]
1 | C/C(=N\O)c1cc(-c2ccc(O)cc2)ccc1O [2a, (E)-1-(6-Hydroxy-3-(4-hydroxyphenyl)phenyl)ethanone Oxime] | no stimulation | 1.1 | –
2 | C/C(=N\O)c1cc(-c2ccc(O)c(F)c2)ccc1O [2c, (E)-1-(6-Hydroxy-3-(3-fluoro-4-hydroxyphenyl)phenyl)ethanone Oxime] | no stimulation | – | ~4

— publication PMC4610302 (Journal of Medicinal Chemistry, 2015)
